Reference: patent US5136090A, “Biphenyl-5,5'-bis-alkanoic acid derivatives, their production and aldose reductase inhibitors containing the same” (Toyo Jozo Kabushiki Kaisha, priority 1990, dated 1992)

Tests used:
[1] = molecular target: T1, partially purified bovine lens aldose reductase (Bos taurus, UniProt P16116); assay: Inhibitory activity on aldose reductase enzyme reaction; format: biochemical; details: for inhibition at 0.02 µg/mL: concentration 0.02 μg/ml; for inhibition at 0.1 µg/mL: concentration 0.1 μg/ml
T1 construct: partially purified bovine lens aldose reductase; from tissue; host or cells: bovine lens
Experimental: The preparation of aldose reductase and the determination of its inhibitory action on enzyme reaction activity were carried out pursuant to the procedures disclosed by Haymann et al. in Journal of Biological Chemistry, 240, 877 (1965).
The sample solution to be examined for inhibitory activity was prepared by dissolving a compound of formula (I) according to the present invention in a small amount of methanol and increasing the volume of the resulting methanol solution by diluting it with distilled water up to tenfold volume. A partially purified bovine lens aldose reductase was used for the assay.
To 2.4 ml of a solution of 5×10^-5 M NADPH dissolved in a 2/15M phosphate buffer solution (pH 6.0), 0.4 ml of the enzyme solution (15 m units/ml) and 0.1 ml of the sample solution to be examined were added and the mixture was introduced into a quartz cell in a photoelectric photometer and subjected to pre-incubation at 37° C. for 4 mins. Then, 0.1 ml of a 0.015M D,L-glyceraldehyde solution was added thereto for initiating the enzyme reaction and the decrease in the optical absorption at 340 nm was measured at 37° C. for 4 mins. The inhibitory activity on aldose reductase was calculated by the following equation: [formula] in which A represents the enzyme reaction rate with addition of the inhibitor and B denotes the enzyme reaction rate without addition of the inhibitor.

Lens = assay: Suppression of sorbitol accumulation in cultured lens; format: cell-based, Wistar rats; details: concentration 2.5 μg/ml; rat lens cultured 20 hours with 0.9% glucose
Experimental: (§1) Lenses and sciatic nerves extirpated from Wistar rats, male, aged 7 weeks, were washed twice with an aseptic buffer solution consisting of 0.3% trisaminomethane, 0.8% NaCl, 0.038% KCl, 0.025% Na2 HPO4 ·12H2 O, 0.1% glucose and 1.85 ml/l of concentrated HCl.
(§2) The lenses and the sciatic nerves were then preincubated for 30 mins. in a culture medium prepared by adding 2 ml of 7.5% NaHCO3 aseptic solution and 5.5 ml of aseptic calf fetus serum to 100 ml of an aseptic culture medium of 0.98% TC Medium 199 (NISSUI Corp.) containing 0.01% of dihydrostreptomycin and 0.01% of benzylpenicillin. Thereafter, the intrinsic culture was effected in a culture medium prepared by adding each sample solution to be examined and 0.9% of glucose to the abovementioned culture medium and permitting culturing to proceed for 20 hours. The incubation was effected at 37° C. in an atmosphere composed of 95% air and 5% CO2.
(§3) After culturing, the cultured samples of lens and sciatic nerve were removed from the culture medium to filter paper and the weight of each of them was measured after the adherent culture solution had been blown off. Then, each of the cultured samples was homogenized with the addition of 1 ml of a cold 8% HClO4 solution and the homogenized mixture was subjected to centrifugation at 10,000 G for 10 mins., whereby a supernatant was obtained. The resulting precipitate was then homogenized again with addition thereto of 0.5 ml of cold 8% HClO4 solution and the homogenized mixture was again subjected to centrifugation in a similar way as above to obtain a further supernatant. This was combined with the previously obtained supernatant and the resulting solution was neutralized with 2N KOH aq. solution and was supplemented with distilled water to a volume of 5 ml. The precipitate formed by neutralization was separated by centrifugation at 3,000 rpm for 10 mins. and the resulting supernatant was employed as the sample for determining the sorbitol content.
(§4) The determination of the sorbitol content in the lens and in the sciatic nerve was carried out in accordance with the method of Bergmeyer in "Methods of Enzymatic Analysis" edited by H. U. Bergmeyer, pp 1323-1326, Academic Press, New York, 1974 and in accordance with the method of Malaon et al. in "Diabetes" 29, 861-864 (1980).
(§5) To 0.5 ml cf the sample solution for determination of sorbitol content obtained as above, 0.9 ml of 0.1M glycine-KOH buffer solution (pH 9.4) containing 1 mM of NAD^+ and 0.1 ml of a solution of sorbitol dehydrogenase of 20 units/ml were added and the resulting mixture was subjected to incubation at 37° C. for 1 hour.
(§6) The content of sorbitol in each tissue was estimated by assuming the increment of the optical absorption at 340 nm to be proportional to the amount of NADH produced by the reaction for the lens and by detecting the fluorescence with an excitation wavelength of 366 nm and a fluorescence wavelength of 425 nm for the sciatic nerve.
(§7) The activity for suppressing accumulation of sorbitol, i.e. the aldose reductase inhibiting activity, was calculated from the determined sorbitol content by the calculation formula [formula] in which A denotes the content of sorbitol per unit weight of the tissue after cultivation with addition of the inhibitor, B denotes the sorbitol content per unit weight of the tissue after cultivation without addition of the inhibitor and C represents the sorbitol content per unit weight of the tissue after cultivation in the medium without addition of glucose and inhibitor.

Sciatic Nerve = assay: Suppression of sorbitol accumulation in cultured sciatic nerve; format: cell-based, Wistar rats; details: Rattus norvegicus, 20 h, concentration 1.0 μg/ml; rat sciatic nerve cultured 20 hours with 0.9% glucose
Experimental: as §1, §2, §3, §4, §5, §6, §7

inhibition at 0.02 µg/mL [1]	inhibition at 0.1 µg/mL [1]	Compound	inhibition at 2.5 µg/mL (Lens)	inhibition at 1 µg/mL (Sciatic Nerve)
21.1%	51.4%	COc1ccc(CCC(=O)O)cc1-c1cc(CCC(=O)O)ccc1O [Example 16, 2-methoxy-2'-hydroxy-5,5'-bis (2-carboxyethyl) biphenyl]	59.3%	47.7%
19.5%	55%	CCOc1ccc(CCC(=O)O)cc1-c1cc(CCC(=O)O)ccc1O [Example 17, 2-ethoxy-2'-hydroxy-5,5'-bis (2-carboxyethyl) biphenyl]	47.2%	69.2%
14.7%	52.7%	COc1ccc(CCCC(=O)O)cc1-c1cc(CCCC(=O)O)ccc1O [Example 21, 2-methoxy-2'-hydroxy-5,5'-bis (3-carboxypropyl) biphenyl]	48.8%	75.4%
33.6%	69.2%	CCCOc1ccc(CCCC(=O)O)cc1-c1cc(CCCC(=O)O)ccc1O [Example 23, 2-propoxy-2'-hydroxy-5,5'-bis (3-carboxypropyl) biphenyl]	55.3%	81.1%
